Results as given in ChEMBL document CHEMBL4715697, “Synthesis and biological activity of benzamide DNA minor groove binders” (2016).

Experiments:
Format in all cases: functional
OVCAR-3 = experiment: Growth inhibition of human OVCAR-3 cells assessed as cell growth at 0.1 uM incubated for 48 hrs by sulforhodamine B assay relative to control; settings: read-out: Activity
Hs-578T [1] = experiment: Growth inhibition of human Hs-578T cells assessed as cell growth at 0.01 uM incubated for 48 hrs by sulforhodamine B assay relative to control; settings: read-out: Activity
CAKI-1 = experiment: Growth inhibition of human CAKI-1 cells assessed as cell growth at 0.1 uM incubated for 48 hrs by sulforhodamine B assay relative to control; settings: read-out: Activity
SK-MEL-5 [2] = experiment: Growth inhibition of human SK-MEL-5 cells incubated for 48 hrs by sulforhodamine B assay
Malme-3M = experiment: Growth inhibition of human Malme-3M cells assessed as cell growth at 0.01 uM incubated for 48 hrs by sulforhodamine B assay relative to control; settings: read-out: Activity
SK-MEL-5 [3] = experiment: Growth inhibition of human SK-MEL-5 cells assessed as cell growth at 0.1 uM incubated for 48 hrs by sulforhodamine B assay relative to control; settings: read-out: Activity
Hs-578T [4] = experiment: Growth inhibition of human Hs-578T cells assessed as cell growth at 1 uM incubated for 48 hrs by sulforhodamine B assay relative to control; settings: read-out: Activity
SK-OV-3 = experiment: Growth inhibition of human SK-OV-3 cells assessed as cell growth at 1 uM incubated for 48 hrs by sulforhodamine B assay relative to control; settings: read-out: Activity
SN12C = experiment: Growth inhibition of human SN12C cells assessed as cell growth at 0.1 uM incubated for 48 hrs by sulforhodamine B assay relative to control; settings: read-out: Activity
M14 = experiment: Growth inhibition of human M14 cells assessed as cell growth at 0.01 uM incubated for 48 hrs by sulforhodamine B assay relative to control; settings: read-out: Activity
U-251 [5] = experiment: Growth inhibition of human U-251 cells assessed as cell growth at 0.01 uM incubated for 48 hrs by sulforhodamine B assay relative to control; settings: read-out: Activity
HL-60(TB) = experiment: Growth inhibition of human HL-60(TB) cells assessed as cell growth at 100 uM incubated for 48 hrs by sulforhodamine B assay relative to control; settings: read-out: Activity
MDA-MB-468 = experiment: Growth inhibition of human MDA-MB-468 cells incubated for 48 hrs by sulforhodamine B assay
NCI-H23 = experiment: Growth inhibition of human NCI-H23 cells incubated for 48 hrs by sulforhodamine B assay
U-251 [6] = experiment: Growth inhibition of human U-251 cells incubated for 48 hrs by sulforhodamine B assay
SK-MEL-28 = experiment: Growth inhibition of human SK-MEL-28 cells assessed as cell growth at 0.1 uM incubated for 48 hrs by sulforhodamine B assay relative to control; settings: read-out: Activity
SNB-19 = experiment: Growth inhibition of human SNB-19 cells assessed as cell growth at 0.01 uM incubated for 48 hrs by sulforhodamine B assay relative to control; settings: read-out: Activity
SNB-75 [7] = experiment: Growth inhibition of human SNB-75 cells assessed as cell growth at 0.01 uM incubated for 48 hrs by sulforhodamine B assay relative to control; settings: read-out: Activity
DU-145 = experiment: Growth inhibition of human DU-145 cells assessed as cell growth at 100 uM incubated for 48 hrs by sulforhodamine B assay relative to control; settings: read-out: Activity
U-251 [8] = experiment: Growth inhibition of human U-251 cells assessed as cell growth at 100 uM incubated for 48 hrs by sulforhodamine B assay relative to control; settings: read-out: Activity
SNB-75 [9] = experiment: Growth inhibition of human SNB-75 cells assessed as cell growth at 100 uM incubated for 48 hrs by sulforhodamine B assay relative to control; settings: read-out: Activity
T47D = experiment: Growth inhibition of human T47D cells assessed as cell growth at 0.1 uM incubated for 48 hrs by sulforhodamine B assay relative to control; settings: read-out: Activity
SF-539 = experiment: Growth inhibition of human SF-539 cells assessed as cell growth at 0.01 uM incubated for 48 hrs by sulforhodamine B assay relative to control; settings: read-out: Activity
HCT-15 = experiment: Growth inhibition of human HCT-15 cells assessed as cell growth at 0.01 uM incubated for 48 hrs by sulforhodamine B assay relative to control; settings: read-out: Activity
ACHN = experiment: Growth inhibition of human ACHN cells assessed as cell growth at 100 uM incubated for 48 hrs by sulforhodamine B assay relative to control; settings: read-out: Activity
RPMI-8226 = experiment: Growth inhibition of human RPMI-8226 cells assessed as cell growth at 100 uM incubated for 48 hrs by sulforhodamine B assay relative to control; settings: read-out: Activity
COLO 205 = experiment: Growth inhibition of human COLO 205 cells assessed as cell growth at 100 uM incubated for 48 hrs by sulforhodamine B assay relative to control; settings: read-out: Activity
NCI/ADR-RES = experiment: Growth inhibition of human NCI/ADR-RES cells incubated for 48 hrs by sulforhodamine B assay
MCF7 = experiment: Growth inhibition of human MCF7 cells assessed as cell growth at 1 uM incubated for 48 hrs by sulforhodamine B assay relative to control; settings: read-out: Activity
PC-3 = experiment: Growth inhibition of human PC-3 cells assessed as cell growth at 0.1 uM incubated for 48 hrs by sulforhodamine B assay relative to control; settings: read-out: Activity
NCI-H522 = experiment: Growth inhibition of human NCI-H522 cells assessed as cell growth at 1 uM incubated for 48 hrs by sulforhodamine B assay relative to control; settings: read-out: Activity
SW-620 = experiment: Growth inhibition of human SW-620 cells incubated for 48 hrs by sulforhodamine B assay
HOP-62 = experiment: Growth inhibition of human HOP-62 cells incubated for 48 hrs by sulforhodamine B assay
SK-MEL-5 [10] = experiment: Growth inhibition of human SK-MEL-5 cells assessed as cell growth at 100 uM incubated for 48 hrs by sulforhodamine B assay relative to control; settings: read-out: Activity
[11] = read-out: LC50 (the source's name)
[12] = read-out: pLC50 (the source's name) (converted)

CC(=O)Nc1cc(CO[Si](C)(C)C(C)(C)C)cc(NC(=O)c2ccc(C(=O)Nc3cccc(NC(=O)CCCN(C)C)c3)cc2)c1
growth at 0.1 µM (OVCAR-3): 109%
growth at 0.01 µM (Hs-578T [1]): 99%
growth at 0.1 µM (CAKI-1): 91%
GI50 (SK-MEL-5 [2]; read-out: GI50): > 75 µM
LC50 (SK-MEL-5 [2]; read-out: LC50): > 75 µM
TGI (SK-MEL-5 [2]; read-out: TGI): > 75 µM
GI50 (SK-MEL-5 [2]; read-out: pGI50 (converted)): > 75.9 µM
LC50 (SK-MEL-5 [2]; read-out: pLC50 (converted)): > 75.9 µM
TGI (SK-MEL-5 [2]; read-out: pTGI): > 75.9 µM
growth at 0.01 µM (Malme-3M): 99%
growth at 0.1 µM (SK-MEL-5 [3]): 97%
growth at 1 µM (Hs-578T [4]): 117%
growth at 1 µM (SK-OV-3): 107%
growth at 0.1 µM (SN12C): 95%
growth at 0.01 µM (M14): 97%
growth at 0.01 µM (U-251 [5]): 101%
growth at 100 µM (HL-60(TB)): 88%
GI50 (MDA-MB-468; read-out: GI50): > 75 µM
CC50 (MDA-MB-468; [11]): > 75 µM
TGI (MDA-MB-468; read-out: TGI): > 75 µM
GI50 (MDA-MB-468; read-out: pGI50 (converted)): > 75.9 µM
CC50 (MDA-MB-468; [12]): > 75.9 µM
TGI (MDA-MB-468; read-out: pTGI): > 75.9 µM
GI50 (NCI-H23; read-out: GI50): > 75 µM
CC50 (NCI-H23; [11]): > 75 µM
TGI (NCI-H23; read-out: TGI): > 75 µM
GI50 (NCI-H23; read-out: pGI50 (converted)): > 75.9 µM
CC50 (NCI-H23; [12]): > 75.9 µM
TGI (NCI-H23; read-out: pTGI): > 75.9 µM
GI50 (U-251 [6]; read-out: GI50): > 75 µM
CC50 (U-251 [6]; [11]): > 75 µM
TGI (U-251 [6]; read-out: TGI): > 75 µM
GI50 (U-251 [6]; read-out: pGI50 (converted)): > 75.9 µM
CC50 (U-251 [6]; [12]): > 75.9 µM
TGI (U-251 [6]; read-out: pTGI): > 75.9 µM
growth at 0.1 µM (SK-MEL-28): 95%
growth at 0.01 µM (SNB-19): 96%
growth at 0.01 µM (SNB-75 [7]): 93%
growth at 100 µM (DU-145): 85%
growth at 100 µM (U-251 [8]): 89%
growth at 100 µM (SNB-75 [9]): 50%
growth at 0.1 µM (T47D): 97%
growth at 0.01 µM (SF-539): 95%
growth at 0.01 µM (HCT-15): 93%
growth at 100 µM (ACHN): 84%
growth at 100 µM (RPMI-8226): 104%
growth at 100 µM (COLO 205): 80%
GI50 (NCI/ADR-RES; read-out: GI50): > 75 µM
CC50 (NCI/ADR-RES; [11]): > 75 µM
TGI (NCI/ADR-RES; read-out: TGI): > 75 µM
GI50 (NCI/ADR-RES; read-out: pGI50 (converted)): > 75.9 µM
CC50 (NCI/ADR-RES; [12]): > 75.9 µM
TGI (NCI/ADR-RES; read-out: pTGI): > 75.9 µM
growth at 1 µM (MCF7): 101%
growth at 0.1 µM (PC-3): 97%
growth at 1 µM (NCI-H522): 86%
GI50 (SW-620; read-out: GI50): > 75 µM
LC50 (SW-620; read-out: LC50): > 75 µM
TGI (SW-620; read-out: TGI): > 75 µM
GI50 (SW-620; read-out: pGI50 (converted)): > 75.9 µM
LC50 (SW-620; read-out: pLC50 (converted)): > 75.9 µM
TGI (SW-620; read-out: pTGI): > 75.9 µM
GI50 (HOP-62; read-out: GI50): > 75 µM
CC50 (HOP-62; [11]): > 75 µM
TGI (HOP-62; read-out: TGI): > 75 µM
GI50 (HOP-62; read-out: pGI50 (converted)): > 75.9 µM
CC50 (HOP-62; [12]): > 75.9 µM
TGI (HOP-62; read-out: pTGI): > 75.9 µM
growth at 100 µM (SK-MEL-5 [10]): 73%
